Source: patent publication US9422299B2, “Substituted [1,2,4]triazolo[4,3-a]pyrazines as selective NK-3 receptor antagonists” (EUROSCREEN SA, priority 2013, dated 2016)

How the values were obtained:
plasma testosterone = assay: Plasma testosterone in gonad intact male rats; type: in vivo, rat; conditions: gonad intact male SD rats, 3 mg/kg oral, vs vehicle, FIG. 1
Method: Effect of compounds of the invention on plasma testosterone in gonad intact male rats
The study was designed to evaluate the effect of compounds of the invention on testosterone circulating levels following oral administration at 3 mg/kg on SD gonad intact male rats.
(§1) Briefly the experimental methods used for this study were as follows:
Two groups of non-fasted rats (male, Sprague-Dawley, 200 to 225 g; n=4 rats/group) with jugular vein cannulation, were dosed via a single oral administration of compounds of the invention at 3 mg/kg. The control group was dosed with the vehicle. Compounds of the invention were prepared in a dose formulation of pyrogen-free water with 0.5% methylcellulose. Blood samples were collected via the catheter implanted in the jugular vein at pre-determined intervals using EDTA-3K as anti-coagulant. Samples were chilled and rapidly processed by centrifugation to obtain corresponding plasma samples. Testosterone hormone levels were determined by RIA performed on plasma samples collected for all the groups at 5 minutes before administration (basal time), and at 45, 90, 150, 300, 480 minutes and 24 hours after dosing.

circulating LH levels = assay: Castrated male rat model: circulating luteinizing hormone (LH); type: in vivo; conditions: castrated male SD rats, single oral dose less than or equal to 30 mg/kg, p<0.05
Method: In Vivo Assay to Assess Compound Activity in Rat (Oral Dosing)
Castrated male rat model to assess the effect of compound of invention on circulating levels of luteinizing hormone (LH)
The effect of compounds of the invention to inhibit luteinizing hormone (LH) secretion is determined by the following biological studies.
In humans and rodents, castration is well-precedented to permit heightened, persistent GnRH signaling and consequent elevation of circulating LH. Thus, a castrated rat model is used to provide a broad index for measurement of LH inhibition as a marker of test compound inhibition of the GnRH signaling pathway.
Castrated adult male Sprague-Dawley (SD) rats (150-175 g,) were purchased from Janvier (St Berthevin, France). All animals were housed 2 per cage in a temperature-controlled room (22±2° C.) and 50±5% relative humidity with a 12 hour/12 hour light/dark cycles (lights off at 6h00 pm). The animals were allowed 3 weeks of postoperative recovery prior to study. Animals were handled on a daily basis. Standard diet and tap water were provided ad libitum. Animal cage litters were changed once a week. On the study day, animals were acclimated to the procedure room for a period of one hour prior to the initiation of the experiment.
Compounds of the invention were formulated in 0.5% methyl cellulose.
After basal sampling (TO) a single dose of compounds of the invention or vehicle was administrated orally to rats. Blood samples were then collected at several time points post dosing (45, 90, 150, 300 and 420 minutes). Blood samples were obtained via tail vein bleed, drawn into EDTA-containing tubes and centrifuged immediately. Plasma samples were collected and stored in a −80° C. freezer until assayed. Serum LH levels were determined using radioimmunoassay kit from RIAZEN—Rat LH, Zentech (Liege, Belgium). Baseline was defined as the initial basal blood sample.

body temperature = assay: Thermoregulation in OVX ewes; type: in vivo, ewe; conditions: ovariectomized ewes, 1 mg/kg intravenous bolus, fed at 12h00
Source text: In Vivo Assay in OVX Ewes-Activity in Thermoregulation Experimental Methods: Evaluation of Thermoregulation in OVX Ewe […] After 4 months recovery, animals were acclimatised to housing in single pens for a period of 7 days with ad libitum access to water and […] lucerne hay. One day prior to experimentation, the animals received a jugular vein cannula ([…], Tuta Laboratories, Lane Cove, Australia). The cannula were kept patent with heparinised saline. On the day of the experiment, compound no 5 of the present invention was formulated in physiological saline with 9% 2-hydroxypropyl-β-cyclodextrin at a concentration of 2 mg/mL. Compound no 5 (1 mg/kg, N=5) or vehicle (N=5) was administered at 11h00 by intravenous bolus injection at a dose volume of 0.5 mL/kg through the jugular cannula and the injected material was flushed into the animal with 5 mL of heparinised saline. Animals were fed at 12h00. Rectal temperatures were monitored with a probe at hourly intervals throughout the experiment, starting at 7h40 and concluding at 15h40.

plasma estradiol = assay: Estradiol circulating level in female rats; type: in vivo, rat; conditions: adult female rats, 10 mg/kg b.i.d. oral, 10 days, FIG. 3
Method: Effect of Compounds of the Invention on Estradiol Circulating Level in Female Rats
The aim of this study was to evaluate the effect of compounds of the invention on plasma estradiol levels following oral administration at 10 mg/kg (b.i.d.) for a period of 10 days in female rats.
as §1
Two groups of adult, female rats (Sprague-Dawley, ˜320 g) were treated in-phase with their individual estrous cycles. Thus, treatment was started in the proestrus phase (coincident with peak estradiol levels, as shown on Day 1 in FIG. 3) and rats were dosed twice daily (˜9h30 and 17h30) by oral administration either with a compound of the invention at 10 mg/kg or with the vehicle for the control group. Compounds of the invention were prepared in a dose formulation of pyrogen-free water with 0.5% methylcellulose. Estradiol levels were determined for all groups by ELISA performed on plasma samples derived from blood collections taken at 30 minutes before the daily, 9h30 test article administration on all days presented in FIG. 3.

human NK-3 receptor [1] = target: T1, human NK-3 receptor (Homo sapiens (Human), UniProt P29371); assay: 3H-SB222200 binding competition assay with human NK-3 receptor; conditions: read-out: hNK-3 (Ki)
T1 sequence (P29371 whole entry): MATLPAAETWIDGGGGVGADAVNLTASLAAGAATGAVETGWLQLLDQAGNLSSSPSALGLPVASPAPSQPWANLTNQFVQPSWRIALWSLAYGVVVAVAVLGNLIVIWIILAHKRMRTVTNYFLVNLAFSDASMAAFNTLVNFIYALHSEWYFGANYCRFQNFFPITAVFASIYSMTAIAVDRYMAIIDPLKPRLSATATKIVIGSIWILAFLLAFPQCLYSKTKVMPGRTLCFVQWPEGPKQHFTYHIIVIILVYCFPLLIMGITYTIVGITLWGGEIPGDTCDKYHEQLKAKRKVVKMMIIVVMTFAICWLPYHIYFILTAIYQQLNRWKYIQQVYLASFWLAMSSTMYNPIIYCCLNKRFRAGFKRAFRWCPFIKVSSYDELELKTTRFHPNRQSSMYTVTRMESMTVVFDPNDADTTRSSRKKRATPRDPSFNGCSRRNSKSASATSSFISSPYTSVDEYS
Method: The affinity of compounds of the invention for the human NK-3 receptor was determined by measuring the ability of compounds of the invention to competitively and reversibly displace a well-characterized NK-3 radioligand in a concentration-dependent manner.
^3H-SB222200 Binding Competition Assay with Human NK-3 Receptor
Membranes were prepared from Chinese hamster ovary recombinant cells stably expressing the human NK-3 receptor. The membranes were incubated with 5 nM ^3H-SB222200 (ARC) in a HEPES 25 mM/NaCl 0.1M/CaCl2 1 mM/MgCl2 5 mM/BSA 0.5%/Saponin 10 μg/ml buffer at pH 7.4 and various concentrations of compounds of the invention. The amount of ^3H-SB222200 bound to the receptor was determined after filtration by the quantification of membrane associated radioactivity using the TopCount-NXT reader (Packard).

hERG channel = hERG channel (Homo sapiens (Human), UniProt Q12809); assay: hERG inhibition assay (manual patch-clamp, HEK 293 cells); type: cell-based; conditions: 5 minutes of exposure, read-out: CardioSafety (hERG IC50)
Chain of hERG channel (Q12809 whole entry): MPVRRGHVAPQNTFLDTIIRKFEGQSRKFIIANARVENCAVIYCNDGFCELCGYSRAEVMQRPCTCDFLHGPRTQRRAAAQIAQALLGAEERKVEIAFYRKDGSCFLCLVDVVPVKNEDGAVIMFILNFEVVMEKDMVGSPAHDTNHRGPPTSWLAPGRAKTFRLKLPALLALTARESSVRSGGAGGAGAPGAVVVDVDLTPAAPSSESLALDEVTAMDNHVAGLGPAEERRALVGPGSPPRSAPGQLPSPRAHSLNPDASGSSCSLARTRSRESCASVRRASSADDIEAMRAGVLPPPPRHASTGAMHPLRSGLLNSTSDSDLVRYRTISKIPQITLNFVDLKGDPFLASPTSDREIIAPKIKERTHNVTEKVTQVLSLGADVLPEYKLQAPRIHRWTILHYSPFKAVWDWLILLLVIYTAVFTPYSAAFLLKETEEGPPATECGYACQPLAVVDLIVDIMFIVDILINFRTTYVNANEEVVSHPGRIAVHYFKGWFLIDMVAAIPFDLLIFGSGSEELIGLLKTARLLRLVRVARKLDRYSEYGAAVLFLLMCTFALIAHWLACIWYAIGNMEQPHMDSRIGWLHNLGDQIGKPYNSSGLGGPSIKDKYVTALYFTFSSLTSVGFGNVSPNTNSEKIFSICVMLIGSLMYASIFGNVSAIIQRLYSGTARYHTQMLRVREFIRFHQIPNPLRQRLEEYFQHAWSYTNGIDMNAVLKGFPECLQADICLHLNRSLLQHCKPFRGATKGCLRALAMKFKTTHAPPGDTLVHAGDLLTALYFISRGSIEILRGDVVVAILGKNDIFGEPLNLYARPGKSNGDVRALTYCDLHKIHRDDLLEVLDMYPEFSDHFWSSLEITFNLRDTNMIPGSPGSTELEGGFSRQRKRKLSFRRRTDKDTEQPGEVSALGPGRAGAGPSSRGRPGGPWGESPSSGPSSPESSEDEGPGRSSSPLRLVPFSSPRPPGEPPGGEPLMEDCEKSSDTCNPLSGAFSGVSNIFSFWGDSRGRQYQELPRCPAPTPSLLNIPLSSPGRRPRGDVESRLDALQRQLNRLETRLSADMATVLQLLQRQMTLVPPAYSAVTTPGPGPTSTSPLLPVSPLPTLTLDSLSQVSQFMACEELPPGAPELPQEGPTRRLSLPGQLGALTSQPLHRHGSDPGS
Method: The human ether-a-go-go related gene (hERG) encodes the inward rectifying voltage gated potassium channel in the heart (IKr) which is involved in cardiac repolarisation. […] IKr current inhibition accounts for the vast majority of known cases of drug-induced QT-prolongation.
Whole-cell currents (acquisition by manual patch-clamp) elicited during a voltage pulse were recorded in baseline conditions and following application of tested compounds (5 minutes of exposure). The concentrations of tested compounds (0.3 μM; 3 μM; 10 μM; 30 μM) reflect a range believed to exceed the concentrations at expected efficacy doses in preclinical models.
The current density recorded were normalized against the baseline conditions and corrected for solvent effect and time-dependent current run-down using experimental design in test compound free conditions.

human NK-3 receptor [2] = target: T1, human NK-3 receptor; assay: Aequorin functional assay with human NK-3 receptor (antagonist testing); type: cell-based; conditions: read-out: Functional assay: Aequorin assay with human NK-3 receptor hNK-3 - AEQ (antagonist IC50)
Method: Aequorin Assay with Human NK-3 Receptor
Changes in intracellular calcium levels are a recognized indicator of G protein-coupled receptor activity. The efficacy of compounds of the invention to inhibit NKA-mediated NK-3 receptor activation was assessed by an in vitro Aequorin functional assay. Chinese Hamster Ovary recombinant cells expressing the human NK-3 receptor and a construct that encodes the photoprotein apoaequorin were used for this assay. In the presence of the cofactor coelenterazine, apoaequorin emits a measurable luminescence that is proportional to the amount of intracellular (cytoplasmic) free calcium.
The antagonist activity of compounds of the invention is measured following pre-incubation (3 minutes) of the compound (at various concentrations) with the cells, followed by addition of the reference agonist (NKA) at a final concentration equivalent to the EC80 (3 nM) and recording of emitted light (FDSS 6000 Hamamatsu) over the subsequent 90-second period. The intensity of the emitted light is integrated using the reader software. Compound antagonist activity is measured based on the concentration-dependent inhibition of the luminescence response to the addition of Neurokinin A.

plasma protein = assay: Determination of plasma protein binding (equilibrium dialysis); type: in vitro ADME; conditions: 4 hours at 37° C.
Source text: Determination of Plasma Protein Binding
The pharmacokinetic and pharmacodynamic properties of chemicals/drugs are largely a function of the reversible binding of chemicals to plasma or serum proteins. […] Consequently, the extent of the plasma protein binding (PPB) of a compound influences its action as well as its distribution and elimination.
The determination of plasma protein binding (PPB) of a compound is enabled by equilibrium dialysis, an accepted and standard method for reliable estimation of the non-bound drug fraction in plasma. RED (Rapid Equilibrium Dialysis) device insert is made of two side-by-side chambers separated by an O-ring-sealed vertical cylinder of dialysis membrane (MWCO˜8,000). […] After 4 hours incubation at 37° C. under shaking, an aliquot is removed from each chamber and analyzed by a LC-MS/MS procedure enables the determination of both free and bound drug.
The “free fraction” may be calculated as 100%-% rPPB (i.e. the complementary percentage of that disclosed in Table 4, corresponding to the drug concentration that is unbound and therefore available to engage biological target and elicit pharmacological activity).

human NK-1 receptor = human NK-1 receptor (Homo sapiens (Human), UniProt P25103); assay: Selectivity assay: [3H] substance P binding, human NK-1; conditions: 2 nM [3H] substance P, CHO membranes; read-out: hNK-1 (Ki)
Chain of human NK-1 receptor (P25103 whole entry): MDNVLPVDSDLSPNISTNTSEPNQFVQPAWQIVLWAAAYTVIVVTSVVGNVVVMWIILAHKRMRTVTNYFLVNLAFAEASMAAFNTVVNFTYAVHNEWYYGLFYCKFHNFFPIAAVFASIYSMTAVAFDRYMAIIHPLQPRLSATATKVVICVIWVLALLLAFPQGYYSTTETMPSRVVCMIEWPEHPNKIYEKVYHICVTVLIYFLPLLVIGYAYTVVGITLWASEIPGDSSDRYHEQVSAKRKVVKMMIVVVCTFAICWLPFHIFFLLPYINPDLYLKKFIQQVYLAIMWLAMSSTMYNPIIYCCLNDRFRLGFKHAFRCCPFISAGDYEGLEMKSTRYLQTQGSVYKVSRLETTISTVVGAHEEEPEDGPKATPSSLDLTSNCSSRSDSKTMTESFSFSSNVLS
Method: Selectivity of the compounds of the invention was determined over the other human NK receptors, namely NK-1 and NK-2 receptors.
The affinity of compounds of the invention for the NK-1 receptor was evaluated in CHO recombinant cells which express the human NK-1 receptor. Membrane suspensions were prepared from these cells. The following radioligand: [^3H] substance P (PerkinElmer Cat#NET111520) was used in this assay. Binding assays were performed in a 50 mM Tris/5 mM MnCl2/150 mM NaCl/0.1% BSA at pH 7.4. Binding assays consisted of 25 μl of membrane suspension (approximately 5 μg of protein/well in a 96 well plate), 50 μl of compound or reference ligand (Substance P) at increasing concentrations (diluted in assay buffer) and 2 nM [^3H] substance P. The plate was incubated 60 min at 25° C. in a water bath and then filtered over GF/C filters (Perkin Elmer, 6005174, presoaked in 0.5% PEI for 2 h at room temperature) with a Filtration unit (Perkin Elmer). The radioactivity retained on the filters was measured by using the TopCount-NXT reader (Packard).

human NK-2 receptor = human NK-2 receptor (Homo sapiens (Human), UniProt P21452); assay: Selectivity assay: [125I]-Neurokinin A binding, human NK-2; conditions: 0.1 nM [125I]-Neurokinin A, CHO membranes; read-out: hNK-2 (Ki)
Chain of human NK-2 receptor (P21452 whole entry): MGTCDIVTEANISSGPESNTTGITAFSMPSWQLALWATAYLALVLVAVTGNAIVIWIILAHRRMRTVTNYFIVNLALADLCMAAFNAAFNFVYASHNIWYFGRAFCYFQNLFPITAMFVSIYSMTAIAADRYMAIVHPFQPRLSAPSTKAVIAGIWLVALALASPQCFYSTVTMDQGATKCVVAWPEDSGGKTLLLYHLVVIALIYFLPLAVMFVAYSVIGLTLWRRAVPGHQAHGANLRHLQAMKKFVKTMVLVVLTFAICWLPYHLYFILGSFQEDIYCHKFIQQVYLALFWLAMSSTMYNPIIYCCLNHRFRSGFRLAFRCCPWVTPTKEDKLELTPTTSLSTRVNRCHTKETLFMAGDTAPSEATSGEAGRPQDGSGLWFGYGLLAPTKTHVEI
Method: The affinity of compounds of the invention for the NK-2 receptor was evaluated in CHO recombinant cells which express the human NK-2 receptor. Membrane suspensions were prepared from these cells. […] Binding assays were performed in a 25 mM HEPES/1 mM CaCl2/5 mM MgCl2/0.5% BSA/10 μg/ml saponin, at pH 7.4. […] The radioactivity retained on the filters was measured by using the TopCount-NXT reader (Packard).

In the case of `Cc1nsc(-c2nnc3n2CCN(C(=O)c2ccc(F)cc2)[C@@H]3C)n1` [Compound 5, (R)-(4-fluorophenyl)(8-methyl-3-(3-methyl-1,2,4-thiadiazol-5-yl)-5,6-dihydro-[1,2,4]triazolo[4,3-a]pyrazin-7(8H)-yl)methanone], the plasma testosterone level (plasma testosterone) is reported as “significantly suppressed plasma testosterone level”, the “circulating LH levels” value (circulating LH levels) is reported as “significantly suppressed circulating LH levels” and the “pyrogenic response to feeding” value (body temperature) is reported as “not observed”. For the same compound, the estradiol levels (plasma estradiol) was “significantly decreased estradiol levels”.
`COc1cccc(C(=O)N2CCn3c(-c4nc(C)ns4)nnc3[C@H]2C)c1` [Compound 27, (R)-(3-methoxyphenyl)(8-methyl-3-(3-methyl-1,2,4-thiadiazol-5-yl)-5,6-dihydro-[1,2,4]triazolo[4,3-a]pyrazin-7(8H)-yl)methanone] was tested, and the Ki (human NK-3 receptor [1]) was 100 nM, the IC50 (hERG channel) was at least 70000 nM and the IC50 (human NK-3 receptor [2]) was 220 nM. The “Exposure (% rPPB), bound drug fraction to the plasma protein” value (plasma protein) was 24%, the Ki (human NK-1 receptor) was over 30000 nM and the Ki (human NK-2 receptor) was over 30000 nM.
